Results taken from patent publication US11708357B2, “Crystal form of pyrrolidinyl urea derivative and application thereof” (ZHANGZHOU PIEN TZE HUANG PHARMACEUTICAL CO., LTD., priority 2020, dated 2023).

Experiments:
[1] = Hygroscopicity by dynamic vapor sorption (DVS); assay type: physicochemical; conditions: 25° C. and 80% RH
Protocol: Instrument model: Intrinsic dynamic vapor sorption instrument
Detection conditions: A sample (10-30 mg) was placed in a DVS sample tray for detection.
Balance: dm/dt=0.002%/min (shortest: 10 min, longest: 180 min)

[2] = Solid stability test (XRPD and HPLC purity); assay type: physicochemical
Protocol: Samples placed under high temperature and high humidity conditions were sealed with aluminum foil paper and small holes were punched in the aluminum foil paper to ensure that the sample could fully contact with ambient air; […] Samples placed under high temperature (60° C.) and high humidity (92.5% humidity, room temperature) conditions were sampled and tested (XRPD and purity) on the 5th and 10th day. […] Samples placed under the condition of illumination were sampled and tested when the total illuminance reached 1.2×10^6 Lux·hr.

[3] = In vivo pharmacokinetic study in beagle dogs after single administration; conditions: male, dog, plasma, 10 mg/kg, 10 mpk oral administration
Protocol: Male beagle dogs were used as test animals, the concentration of the compound in blood after single administration was determined to evaluate the pharmacokinetic behavior.
Beagle dogs (Male, 6-12 kg, more than 6 months, Beijing Marshall Biotechnology Co., Ltd.).
The objective of the test was to study the pharmacokinetic characteristics of the test compound in non-rodent after intravenous injection and oral administration. In the experiment, the test compound was prepared into a clear solution or homogeneous suspension and administered to the beagle dogs by single intravenous injection or oral administration. In the intravenous injection group, the menstruum was a certain proportion of dimethyl sulfoxide in HP-β-cyclodextrin solution or a certain proportion of ethanol, polyethylene glycol 400 and physiological saline solution, the mixture was vortexed and subjected to ultrasonic treatment to prepare 2 mg/mL clear solution, then filtered with microporous membrane for later use; in the oral administration group, the menstruum was a certain proportion of dimethyl sulfoxide in HP-β-cyclodextrin solution or a certain proportion of sodium carboxymethyl cellulose solution, the test compound was mixed with the menstruum, vortexed and subjected to ultrasonic treatment to prepare 2 mg/mL homogeneous suspension for later use. After 2 mg/kg intravenous administration or 10 mg/kg oral administration to the Beagle dogs, a certain amount of whole blood samples were collected, centrifuged at 3000 g for 10 minutes, and the supernatant was separated to obtain plasma samples; then an acetonitrile solution containing internal standard with a volume 10 times that of the plasma sample was added to precipitate proteins, and then centrifuged; the supernatant was separated for analysis; LC-MS/MS analysis method was used to quantitatively analyze the blood drug concentration, and Phoenix WinNonlin software (Pharsight, USA) was used to calculate the pharmacokinetic parameters, such as peak concentration, time to peak concentration, clearance rate, half-life, area under the concentration-time curve, bioavailability, etc.
(§1) Among them, C0 is the initial concentration, T1/2 is the elimination half-life, Vdss is the steady-state apparent volume of distribution, Cl is the total clearance rate, AUC0-inf is the area under the plasma drug concentration-time curve from time 0 to infinity, Cmax is the peak concentration, Tmax is the time to peak concentration.

[4] = In vivo pharmacokinetic study in rats after single administration; conditions: male, Sprague Dawley, rat, plasma, 300 mg/kg, 300 mpk oral administration
Protocol: Male SD rats were used as test animals, and the concentration of the compound in blood was determined after single administration to evaluate the pharmacokinetic behavior.
Sprague Dawley rats (male, 200-300 g, 7-9 weeks, Shanghai Charles River Laboratory Animal Co., Ltd.)
The pharmacokinetic characteristics of the test compound in rodents after intravenous injection and oral administration were tested by standard protocols, in the experiment, the test compound was prepared into a clear solution or homogeneous suspension, and administered to the rats by single intravenous injection and oral administration. In the intravenous injection group, the menstruum was a certain proportion of ethanol and physiological saline solution or a certain proportion of dimethyl sulfoxide in HP-β cyclodextrin solution (the pH was adjusted to 3-4), the mixture was vortexed and stirred to prepare 1 mg/mL clear solution, then filtered with microporous membrane for later use; in the oral administration group, the menstruum was a certain proportion of sodium carboxymethyl cellulose solution or a certain proportion of dimethyl sulfoxide in HP-β cyclodextrin solution (the pH was adjusted to about 4), after the test compound was mixed with the solvent, the mixture was vortexed and stirred to prepare 30 mg/mL homogeneous suspension for later use. After 2 mg/kg intravenous administration or 300 mg/kg oral administration to rats, a certain amount of whole blood samples were collected, centrifuged at 3000 g for 15 minutes, the supernatant was separated to obtain the plasma samples; then an acetonitrile solution containing internal standard with a volume 3 times that of the plasma sample was added to precipitate proteins, and then centrifuged; the supernatant was separated, and water with a volume twice that of the supernatant was added to the supernatant, which was then centrifuged again; the supernatant was collected for analysis; LC-MS/MS analysis method was used to quantitatively analyze the blood drug concentration, and Phoenix WinNonlin software (Pharsight, USA) was used to calculate the pharmacokinetic parameters, such as peak concentration, time to peak concentration, clearance rate, half-life, area under the concentration-time curve, bioavailability, etc.
as §1

[5] = 40° C., relative humidity 75%, opened, 30 days
[6] = 40° C., relative humidity 75%, opened, 60 days
[7] = 60° C., relative humidity 75%, opened, 30 days
[8] = 60° C., relative humidity 75%, opened, 60 days
[9] = High humidity (room temperature/relative humidity 92.5%, opened), 5 days
[10] = High humidity (room temperature/relative humidity 92.5%, opened), 10 days
[11] = High temperature (60° C., opened), 5 days
[12] = High temperature (60° C., opened), 10 days
[13] = Illumination (total illuminance 1.2 × 10^6 Lux · hr/near ultraviolet 200 w · hr/m^2, opened)

- Classification of hygroscopicity [1]: hygroscopic (15% > ΔW % ≥ 2%)
- hygroscopic weight gain ΔW [1]: 6.228%
- Crystal form (XRPD) ([2]; 0 day (initial)): Crystal form E
- Purity ([2]; 0 day (initial)): 98.75%
- Crystal form (XRPD) [2, 5]: Crystal form E
- Purity [2, 5]: 98.14%
- Crystal form (XRPD) [2, 6]: Crystal form E
- Purity [2, 6]: 98.06%
- Crystal form (XRPD) [2, 7]: Crystal form E
- Purity [2, 7]: 98.17%
- Crystal form (XRPD) [2, 8]: Crystal form E
- Purity [2, 8]: 98.22%
- Crystal form (XRPD) [2, 9]: Crystal form E
- Purity [2, 9]: 98.62%
- Crystal form (XRPD) [2, 10]: Crystal form E
- Purity [2, 10]: 98.72%
- Crystal form (XRPD) [2, 11]: Crystal form E
- Purity [2, 11]: 98.74%
- Crystal form (XRPD) [2, 12]: Crystal form E
- Purity [2, 12]: 98.74%
- Crystal form (XRPD) [2, 13]: Crystal form E
- Purity [2, 13]: 98.83%
- AUC(0-inf) [3]: 26.4 µM·h
- Cmax [3]: 10.4 µM
- Tmax [3]: 45 min
- bioavailability [3]: 113%
- half-life [3]: 57 min
- AUC(0-inf) [4]: 276 µM·h
- Cmax [4]: 48.5 µM
- Tmax [4]: 45 min
- bioavailability [4]: 70.5%
- half-life [4]: 195 min
Compound: COCCN1C[C@@H](n2ccc(F)c2)[C@H](NC(=O)Nc2c(C)c(-c3cnc(C4(F)COC4)nc3)nn2-c2ccccc2)C1
